Measurements from patent US20100190788A1, “Amide derivatives as kinase inhitors” (priority 2005, published 2010).
Where a name gives a salt, the structure may show the parent alone.

Target: T1, human ROCKα/ROCKII mix (Homo sapiens, UniProt O75116)
T1 construct: purchased Upstate Biotechnology 14-451
Test: ROCK inhibition, fluorescence polarization (FP) assay with ROCK IMAP Kit
Type: biochemical

[1] = Table 3, compounds of Formula III20

T1 sequence (O75116 whole entry): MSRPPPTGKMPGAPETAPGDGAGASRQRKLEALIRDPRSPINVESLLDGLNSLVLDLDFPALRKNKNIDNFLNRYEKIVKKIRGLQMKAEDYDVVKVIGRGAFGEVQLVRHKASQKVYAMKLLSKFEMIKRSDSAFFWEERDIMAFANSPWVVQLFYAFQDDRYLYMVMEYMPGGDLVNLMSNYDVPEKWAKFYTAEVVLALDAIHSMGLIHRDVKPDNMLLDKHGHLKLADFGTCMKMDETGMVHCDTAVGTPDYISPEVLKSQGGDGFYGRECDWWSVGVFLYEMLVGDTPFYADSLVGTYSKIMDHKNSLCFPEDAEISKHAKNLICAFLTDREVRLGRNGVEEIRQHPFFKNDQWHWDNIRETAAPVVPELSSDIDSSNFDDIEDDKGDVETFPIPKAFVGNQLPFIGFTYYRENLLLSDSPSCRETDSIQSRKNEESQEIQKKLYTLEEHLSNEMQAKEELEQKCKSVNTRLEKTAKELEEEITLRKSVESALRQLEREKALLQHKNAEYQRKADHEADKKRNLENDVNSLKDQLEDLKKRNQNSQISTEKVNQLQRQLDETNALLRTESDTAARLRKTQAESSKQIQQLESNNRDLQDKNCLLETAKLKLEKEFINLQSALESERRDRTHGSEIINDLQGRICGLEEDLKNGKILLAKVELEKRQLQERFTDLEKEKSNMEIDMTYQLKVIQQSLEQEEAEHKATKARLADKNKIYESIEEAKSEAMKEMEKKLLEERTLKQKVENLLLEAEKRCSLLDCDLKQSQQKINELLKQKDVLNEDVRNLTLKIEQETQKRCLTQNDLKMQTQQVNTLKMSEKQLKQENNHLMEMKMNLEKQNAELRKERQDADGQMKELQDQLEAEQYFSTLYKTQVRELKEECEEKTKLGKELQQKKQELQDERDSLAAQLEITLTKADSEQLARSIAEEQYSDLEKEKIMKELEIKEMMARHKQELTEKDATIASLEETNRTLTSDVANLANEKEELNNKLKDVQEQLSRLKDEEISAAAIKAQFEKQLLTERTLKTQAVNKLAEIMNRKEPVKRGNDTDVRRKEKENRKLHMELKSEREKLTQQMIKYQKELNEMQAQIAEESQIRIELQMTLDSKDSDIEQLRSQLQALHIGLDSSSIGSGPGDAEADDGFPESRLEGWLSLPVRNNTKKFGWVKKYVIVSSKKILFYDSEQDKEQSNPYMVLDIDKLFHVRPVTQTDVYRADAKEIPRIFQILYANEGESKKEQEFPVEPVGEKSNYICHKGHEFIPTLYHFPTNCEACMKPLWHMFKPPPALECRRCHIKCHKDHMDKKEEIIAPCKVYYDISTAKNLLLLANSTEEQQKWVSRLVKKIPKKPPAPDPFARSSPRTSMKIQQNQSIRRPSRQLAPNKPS

SMILES	IC50 [1] [µM]	IC50 (Table 4, compounds 132 to 156) [µM]
NC(CC(=O)N1CCC(O)(c2ccccc2)CC1)c1ccc(C(=O)Nc2ccncc2)cc1 (stereo not drawn) [Compound 111, 4-[1-amino-3-(4-hydroxy-4-phenyl-piperidin-1-yl)-3-oxo-propyl]-N-pyridin-4-yl-benzamide]	< 0.5	
CC(C)N1CCN(C(=O)CC(N)c2ccc(C(=O)Nc3ccncc3)cc2)CC1 (stereo not drawn) [Compound 114, 4-[1-amino-3-(4-isopropyl-piperazin-1-yl)-3-oxo-propyl]-N-pyridin-4-yl-benzamide]	< 0.5	
NC(CC(=O)N1CC=C(c2ccc(F)cc2)CC1)c1ccc(C(=O)Nc2ccncc2)cc1 (stereo not drawn) [Compound 118, 4-{1-amino-3[4-(4-fluoro-phenyl)-3,6-dihydro-2H-pyridin-1-yl]-3-oxo-propyl}-N-pyridin-4-yl-benzamide]	< 0.5	
NC(CC(=O)N1CCC(c2nc3ccccc3o2)CC1)c1ccc(C(=O)Nc2ccncc2)cc1 (stereo not drawn) [Compound 120, 4-[1-amino-3-(4-benzooxazol-2-yl-piperidin-1-yl)-3-oxo-propyl]-N-pyridin-4-yl-benzamide]	< 0.5	
NC(CC(=O)N1CCN(C(=O)c2ccco2)CC1)c1ccc(C(=O)Nc2ccncc2)cc1 (stereo not drawn) [Compound 124, 4-{1-amino-3-[4-(furan-2-carbonyl)-piperazin-1-yl]-3-oxo-propyl}-N-pyridin-4-yl-benzamide]	< 0.5	
NC(CC(=O)N1CCC(c2c[nH]c3ccccc23)CC1)c1ccc(C(=O)Nc2ccncc2)cc1 (stereo not drawn) [Compound 125, 4-{1-amino-3-[4-(1H-indol-3-yl)-piperidin-1-yl]-3-oxo-propyl}-N-pyridin-4-yl-benzamide]	< 0.5	
NC(CC(=O)N1CCc2c([nH]c3ccccc23)C1)c1ccc(C(=O)Nc2ccncc2)cc1 (stereo not drawn) [Compound 128, 4-[1-amino-3-oxo-(1,3,4,9-tetrahydro-β-carbolin-2-yl)-propyl]-N-pyridin-4-yl-benzamide]	< 0.5	
NC(CC(=O)N1CCc2c([nH]c3ccccc23)C1c1cccc(Cl)c1)c1ccc(C(=O)Nc2ccncc2)cc1 (stereo not drawn) [Compound 129, 4-{1-amino-3-[1-(3-chloro-phenyl)-1,3,4,9-tetrahydro-β-carbolin-2-yl]-3-oxo-propyl}-N-pyridin-4-yl-benzamide]	0.5 to 5	
COc1ccc(C2c3[nH]c4ccccc4c3CCN2C(=O)CC(N)c2ccc(C(=O)Nc3ccncc3)cc2)cc1Br (stereo not drawn) [Compound 130, 4-{1-amino-3-[1-(3-bromo-4-methoxy-phenyl)-1,3,4,9-tetrahydro-β-carbolin-2-yl]-3-oxo-propyl}-N-pyridin-4-yl-benzamide]	0.5 to 5	
NC(CC(=O)N1CCc2ccccc2C1)c1ccc(C(=O)Nc2ccncc2)cc1 (stereo not drawn) [Compound 131, 4-[1-amino-3-(3,4-dihydro-1H-isoquinolin-2-yl)-3-oxo-propyl]-N-pyridin-4-yl-benzamide]	< 0.5	
COc1ccc(S(=O)(=O)N2CCCC2C(N)c2ccc(C(=O)Nc3ccncc3)cc2)cc1 (stereo not drawn) [Compound 132, 4-{Amino-[1-(4-methoxy-benzenesulfonyl)-pyrrolidin-2-yl]-methyl}-N-pyridin-4-yl-benzamide dihydrochloric acid salt]		0.5 to 5
NC(c1ccc(C(=O)Nc2ccncc2)cc1)C1CCCN1S(=O)(=O)c1ccccc1Cl (stereo not drawn) [Compound 133, 4-{Amino-[1-(2-chloro-benzenesulfonyl)-pyrrolidin-2-yl]-methyl}-N-pyridin-4-yl-benzamide dihydrochloric acid salt]		0.5 to 5
NC(c1ccc(C(=O)Nc2ccncc2)cc1)C1CCCN1S(=O)(=O)c1cccc(Cl)c1 (stereo not drawn) [Compound 134, 4-{Amino-[1-(3-chloro-benzenesulfonyl)-pyrrolidin-2-yl]-methyl}-N-pyridin-4-yl-benzamide dihydrochloric acid salt]		0.5 to 5
NC(c1ccc(C(=O)Nc2ccncc2)cc1)C1CCCN1S(=O)(=O)c1ccc(Cl)cc1 (stereo not drawn) [Compound 135, 4-{Amino-[1-(4-chloro-benzenesulfonyl)-pyrrolidin-2-yl]-methyl}-N-pyridin-4-yl-benzamide dihydrochloric acid salt]		0.5 to 5
NC(c1ccc(C(=O)Nc2ccncc2)cc1)C1CCCN1S(=O)(=O)c1cccc(F)c1 (stereo not drawn) [Compound 137, 4-{Amino-[1-(3-fluoro-benzenesulfonyl)-pyrrolidin-2-yl]-methyl}-N-pyridin-4-yl-benzamide dihydrochloric acid salt]		0.5 to 5
NC(c1ccc(C(=O)Nc2ccncc2)cc1)C1CCCN1S(=O)(=O)c1ccc(F)cc1 (stereo not drawn) [Compound 138, 4-{Amino-[1-(4-fluoro-benzenesulfonyl)-pyrrolidin-2-yl]-methyl}-N-pyridin-4-yl-benzamide dihydrochloric acid salt]		0.5 to 5
CN(CC(N)c1ccc(C(=O)Nc2ccncc2)cc1)S(=O)(=O)c1ccc(F)cc1 (stereo not drawn) [Compound 140, 4-{1-Amino-2-[(4-fluoro-benzenesulfonyl)-methyl-amino]-ethyl}-N-pyridin-4-yl-benzamide dihydrochloric acid salt]		0.5 to 5
CN(CC(N)c1ccc(C(=O)Nc2ccncc2)cc1)S(=O)(=O)c1cccc(F)c1 (stereo not drawn) [Compound 141, 4-{1-Amino-2-[(3-fluoro-benzenesulfonyl)-methyl-amino]-ethyl}-N-pyridin-4-yl-benzamide dihydrochloric acid salt]		0.5 to 5
CN(CC(N)c1ccc(C(=O)Nc2ccncc2)cc1)S(=O)(=O)c1ccccc1Cl (stereo not drawn) [Compound 143, 4-{1-Amino-2-[(2-chloro-benzenesulfonyl)-methyl-amino]-ethyl}-N-pyridin-4-yl-benzamide dihydrochloric acid salt]		0.5 to 5
CN(CC(N)c1ccc(C(=O)Nc2ccncc2)cc1)S(=O)(=O)c1cccc(Cl)c1 (stereo not drawn) [Compound 144, 4-{1-Amino-2-[(3-chloro-benzenesulfonyl)-methyl-amino]-ethyl}-N-pyridin-4-yl-benzamide dihydrochloric acid salt]		0.5 to 5

Other lines, results leading:

IC50 [1] [µM]	IC50 (Table 4, compounds 132 to 156) [µM]	SMILES
< 0.5		NC(CC(=O)N1CCCC(CO)C1)c1ccc(C(=O)Nc2ccncc2)cc1 (stereo not drawn) [Compound 109, 4-[1-amino-3-(3-hydroxymethyl-piperidin-1-yl)-3-oxo-propyl]-N-pyridin-4-yl-benzamide]
< 0.5		NC(CC(=O)N1CCCC2CCCCC21)c1ccc(C(=O)Nc2ccncc2)cc1 (stereo not drawn) [Compound 110, 4-[1-amino-3-(octahydro-quinolin-1-yl)-3-oxo-propyl]-N-pyridin-4-yl-benzamide]
< 0.5		NC(CC(=O)N1CCOCC1)c1ccc(C(=O)Nc2ccncc2)cc1 (stereo not drawn) [Compound 112, 4-(1-amino-3-morpholin-4-yl-3-oxo-propyl)-N-pyridin-4-yl-benzamide]
< 0.5		CC1CN(C(=O)CC(N)c2ccc(C(=O)Nc3ccncc3)cc2)CC(C)O1 (stereo not drawn) [Compound 113, 4-[1-amino-3-(2,6-dimethyl-morpholin-4-yl)-3-oxo-propyl]-N-pyridin-4-yl-benzamide]
< 0.5		NC(CC(=O)N1CCN(CCO)CC1)c1ccc(C(=O)Nc2ccncc2)cc1 (stereo not drawn) [Compound 115, 4-{1-amino-3-[4-(2-hydroxy-ethyl)-piperazin-1-yl]-3-oxo-propyl}-N-pyridin-4-yl-benzamide]
< 0.5		NC(CC(=O)N1CCN(c2ccccc2)CC1)c1ccc(C(=O)Nc2ccncc2)cc1 (stereo not drawn) [Compound 116, 4-[1-amino-3-oxo-3-(4-phenyl-piperazin-1-yl)-propyl]-N-pyridin-4-yl-benzamide]
< 0.5		NC(CC(=O)N1CCC(c2ccccc2)CC1)c1ccc(C(=O)Nc2ccncc2)cc1 (stereo not drawn) [Compound 117, 4-[1-amino-3-(4-phenyl-piperidin-1-yl)-3-oxo-propyl]-N-pyridin-4-yl-benzamide]
< 0.5		NC(CC(=O)N1CCC(Cc2ccccc2)CC1)c1ccc(C(=O)Nc2ccncc2)cc1 (stereo not drawn) [Compound 119, 4-[1-amino-3-(4-benzyl-piperidin-1-yl)-3-oxo-propyl]-N-pyridin-4-yl-benzamide]
0.5 to 5		COc1ccc(CN2CCN(C(=O)CC(N)c3ccc(C(=O)Nc4ccncc4)cc3)CC2)cc1 (stereo not drawn) [Compound 121, 4-{1-Amino-3-[4-(4-methoxy-benzyl)-piperazin-1-yl]-3-oxo-propyl}-N-pyridin-4-yl-benzamide]
< 0.5		NC(CC(=O)N1CCN(Cc2ccccc2F)CC1)c1ccc(C(=O)Nc2ccncc2)cc1 (stereo not drawn) [Compound 122, 4-{1-amino-3-[4-(2-fluoro-benzyl)-piperazin-1-yl]-3-oxo-propyl}-N-pyridin-4-yl-benzamide]
< 0.5		NC(CC(=O)N1CCN(Cc2ccc(F)cc2)CC1)c1ccc(C(=O)Nc2ccncc2)cc1 (stereo not drawn) [Compound 123, 4-{1-amino-3-[4-(4-fluoro-benzyl)-piperazin-1-yl]-3-oxo-propyl}-N-pyridin-4-yl-benzamide]
0.5 to 5		COC(=O)c1ccc2c(c1)CCN(C(=O)CC(N)c1ccc(C(=O)Nc3ccncc3)cc1)C2 (stereo not drawn) [Compound 126, 2-{3-amino-3-[4-(pyridin-4-ylcarbamoyl)-phenyl]-propionyl}-1,2,3,4-tetrahydro-isoquinoline-6-carboxylic acid methyl ester]
< 0.5		COC(=O)c1ccc(C2CCCCN2C(=O)CC(N)c2ccc(C(=O)Nc3ccncc3)cc2)cc1 (stereo not drawn) [Compound 127, 4(1-{3-amino-3-[4-(pyridin-4-ylcarbamoyl)-phenyl]-propionyl}-piperidin-2-yl)-benzoic acid methyl ester]
	0.5 to 5	NC(c1ccc(C(=O)Nc2ccncc2)cc1)C1CCCN1S(=O)(=O)c1ccccc1F (stereo not drawn) [Compound 136, 4-{Amino-[1-(2-fluoro-benzenesulfonyl)-pyrrolidin-2-yl]-methyl}-N-pyridin-4-yl-benzamide dihydrochloric acid salt]
	0.5 to 5	CN(CC(N)c1ccc(C(=O)Nc2ccncc2)cc1)S(=O)(=O)c1ccccc1 (stereo not drawn) [Compound 139, 4-[1-Amino-2-(benzenesulfonyl-methyl-amino)-ethyl]-N-pyridin-4-yl-benzamide dihydrochloric acid salt]
	0.5 to 5	CN(CC(N)c1ccc(C(=O)Nc2ccncc2)cc1)S(=O)(=O)c1ccccc1F (stereo not drawn) [Compound 142, 4-{1-Amino-2-[(2-fluoro-benzenesulfonyl)-methyl-amino]-ethyl}-N-pyridin-4-yl-benzamide dihydrochloric acid salt]
